Reference: patent publication US12708665B2, “Anti-IL-1β antibody therapy in arrhythmogenic cardiomyopathy (ACM)” (Beth Israel Deaconess Medical Center, Inc., priority 2019, dated 2026)

System: Dsg2^mut/mut mice
Experiment: Cytokine arrays, cytokine expression in hearts of Dsg2^mut/mut mice treated with Bay 11-7082
Type: in vivo
Excerpt: Quantitative data (mean±SEM; n=5) for expression of selected cytokines in hearts of vehicle-treated wildtype (WT) mice, Dsg2^mut/mut mice and Dsg2^mut/mut mice treated with Bay 11-7082. * P<0.05 compared to WT; †P<0.05 for treated vs. untreated Dsg2^mut/mut mice.
To characterize production of chemical mediators of the immune response in ACM, we used arrays to measure 111 different cytokines in the hearts of Dsg2^mut/mut mice and compared the amounts to those measured in the hearts of WT mice and Dsg2^mut/mut mice treated with Bay 11-7082. We observed substantial expression of multiple cytokines in the hearts of Dsg2^mut/mut mice. […] Powerful inflammatory mediators were expressed in Dsg2^mut/mut hearts including IL-1β (up by ~13-fold compared to WT hearts), IFNγ (~5-fold), IL-12 (~6-fold) and TNFα (~2-fold). […] Finally, there were increases in some molecules that fulfill anti-inflammatory roles such as IL-1Ra (up by ~4-fold).

[1] = cytokine expression level, mouse heart

## Cc1ccc(S(=O)(=O)/C=C/C#N)cc1 [Bay11-7082]
ACM (Dsg2^mut/mut) mice treated with Bay 11-7082, result in words
  LIX (CXCL5) level: markedly reduced
Dsg2^mut/mut mice treated with Bay 11-7082, result in words
  OPN expression: reduced
[1]
  Adiponectin, Dsg2^mut/mut (Bay11-7082) vs Dsg2^mut/mut: <1
  Adiponectin, Dsg2^mut/mut (Bay11-7082) vs WT: <1
  Amphiregulin, Dsg2^mut/mut (Bay11-7082) vs Dsg2^mut/mut: <1
  Amphiregulin, Dsg2^mut/mut (Bay11-7082) vs WT: <1
  Angiopoietin-1, Dsg2^mut/mut (Bay11-7082) vs Dsg2^mut/mut: <1
  Angiopoietin-1, Dsg2^mut/mut (Bay11-7082) vs WT: <1
  Angiopoietin-2, Dsg2^mut/mut (Bay11-7082) vs Dsg2^mut/mut: 1-2
  Angiopoietin-2, Dsg2^mut/mut (Bay11-7082) vs WT: <1
  Angiopoietin-like 3, Dsg2^mut/mut (Bay11-7082) vs Dsg2^mut/mut: <1
  Angiopoietin-like 3, Dsg2^mut/mut (Bay11-7082) vs WT: <1
  BAFF/BLyS/TNFSF13B, Dsg2^mut/mut (Bay11-7082) vs Dsg2^mut/mut: <1
  BAFF/BLyS/TNFSF13B, Dsg2^mut/mut (Bay11-7082) vs WT: <1
  C1qR1/CD93, Dsg2^mut/mut (Bay11-7082) vs Dsg2^mut/mut: <1
  C1qR1/CD93, Dsg2^mut/mut (Bay11-7082) vs WT: <1
  C-Reactive Protein/CRP, Dsg2^mut/mut (Bay11-7082) vs Dsg2^mut/mut: <1
  C-Reactive Protein/CRP, Dsg2^mut/mut (Bay11-7082) vs WT: <1
  CCL2/JE/MCP-1, Dsg2^mut/mut (Bay11-7082) vs Dsg2^mut/mut: <1
  CCL2/JE/MCP-1, Dsg2^mut/mut (Bay11-7082) vs WT: <1
  CCL3/CCL4/MIP-1a/B, Dsg2^mut/mut (Bay11-7082) vs Dsg2^mut/mut: <1
  CCL3/CCL4/MIP-1a/B, Dsg2^mut/mut (Bay11-7082) vs WT: <1
  CCL5/RANTES, Dsg2^mut/mut (Bay11-7082) vs Dsg2^mut/mut: <1
  CCL5/RANTES, Dsg2^mut/mut (Bay11-7082) vs WT: <1
  CCL6/C10, Dsg2^mut/mut (Bay11-7082) vs Dsg2^mut/mut: <1
  CCL6/C10, Dsg2^mut/mut (Bay11-7082) vs WT: <1
  CCL17/TARC, Dsg2^mut/mut (Bay11-7082) vs Dsg2^mut/mut: <1
  CCL17/TARC, Dsg2^mut/mut (Bay11-7082) vs WT: <1
  CCL19/MIP-3B, Dsg2^mut/mut (Bay11-7082) vs Dsg2^mut/mut: <1
  CCL19/MIP-3B, Dsg2^mut/mut (Bay11-7082) vs WT: <1
  CCL20/MIP-3a, Dsg2^mut/mut (Bay11-7082) vs Dsg2^mut/mut: <1
  CCL20/MIP-3a, Dsg2^mut/mut (Bay11-7082) vs WT: <1
  CCL21/6Ckine, Dsg2^mut/mut (Bay11-7082) vs Dsg2^mut/mut: <1
  CCL21/6Ckine, Dsg2^mut/mut (Bay11-7082) vs WT: <1
  CCL22/MDC, Dsg2^mut/mut (Bay11-7082) vs Dsg2^mut/mut: <1
  CCL22/MDC, Dsg2^mut/mut (Bay11-7082) vs WT: <1
  CD14, Dsg2^mut/mut (Bay11-7082) vs Dsg2^mut/mut: 1-2
  CD14, Dsg2^mut/mut (Bay11-7082) vs WT: <1
  CD40/TNFRSF5, Dsg2^mut/mut (Bay11-7082) vs Dsg2^mut/mut: <1
  CD40/TNFRSF5, Dsg2^mut/mut (Bay11-7082) vs WT: <1
  CD160, Dsg2^mut/mut (Bay11-7082) vs Dsg2^mut/mut: <1
  CD160, Dsg2^mut/mut (Bay11-7082) vs WT: <1
  CX3CL1/Fractalkine, Dsg2^mut/mut (Bay11-7082) vs Dsg2^mut/mut: <1
  CX3CL1/Fractalkine, Dsg2^mut/mut (Bay11-7082) vs WT: <1
  CXCL9/MIG, Dsg2^mut/mut (Bay11-7082) vs Dsg2^mut/mut: <1
  CXCL9/MIG, Dsg2^mut/mut (Bay11-7082) vs WT: <1
  CXCL13/BLC/BCA-1, Dsg2^mut/mut (Bay11-7082) vs Dsg2^mut/mut: <1
  CXCL13/BLC/BCA-1, Dsg2^mut/mut (Bay11-7082) vs WT: 2-4
  CXCL16, Dsg2^mut/mut (Bay11-7082) vs Dsg2^mut/mut: <1
  CXCL16, Dsg2^mut/mut (Bay11-7082) vs WT: <1
  Chemerin, Dsg2^mut/mut (Bay11-7082) vs Dsg2^mut/mut: <1
  Chemerin, Dsg2^mut/mut (Bay11-7082) vs WT: <1
  Chitinase 3-like 1, Dsg2^mut/mut (Bay11-7082) vs Dsg2^mut/mut: <1
  Chitinase 3-like 1, Dsg2^mut/mut (Bay11-7082) vs WT: <1
  Coagulation Factor III/Tissue Factor, Dsg2^mut/mut (Bay11-7082) vs Dsg2^mut/mut: <1
  Coagulation Factor III/Tissue Factor, Dsg2^mut/mut (Bay11-7082) vs WT: <1
  Complement Component C5/C5a, Dsg2^mut/mut (Bay11-7082) vs Dsg2^mut/mut: <1
  Complement Component C5/C5a, Dsg2^mut/mut (Bay11-7082) vs WT: <1
  Complement Factor D, Dsg2^mut/mut (Bay11-7082) vs Dsg2^mut/mut: <1
  Complement Factor D, Dsg2^mut/mut (Bay11-7082) vs WT: <1
  Cystatin C, Dsg2^mut/mut (Bay11-7082) vs Dsg2^mut/mut: <1
  Cystatin C, Dsg2^mut/mut (Bay11-7082) vs WT: <1
  DKK-1, Dsg2^mut/mut (Bay11-7082) vs Dsg2^mut/mut: <1
  DKK-1, Dsg2^mut/mut (Bay11-7082) vs WT: <1
  DPPIV/CD26, Dsg2^mut/mut (Bay11-7082) vs Dsg2^mut/mut: <1
  DPPIV/CD26, Dsg2^mut/mut (Bay11-7082) vs WT: 1-2
  E-Selectin/CD62E, Dsg2^mut/mut (Bay11-7082) vs Dsg2^mut/mut: <1
  E-Selectin/CD62E, Dsg2^mut/mut (Bay11-7082) vs WT: <1
  EGF, Dsg2^mut/mut (Bay11-7082) vs Dsg2^mut/mut: <1
  EGF, Dsg2^mut/mut (Bay11-7082) vs WT: 1-2
  Endoglin/CD105, Dsg2^mut/mut (Bay11-7082) vs Dsg2^mut/mut: <1
  Endoglin/CD105, Dsg2^mut/mut (Bay11-7082) vs WT: <1
  Endostatin, Dsg2^mut/mut (Bay11-7082) vs Dsg2^mut/mut: <1
  Endostatin, Dsg2^mut/mut (Bay11-7082) vs WT: <1
  Eotaxin (CCL11), Dsg2^mut/mut (Bay11-7082) vs Dsg2^mut/mut: <1
  Eotaxin (CCL11), Dsg2^mut/mut (Bay11-7082) vs WT: <1
  FGF acidic, Dsg2^mut/mut (Bay11-7082) vs Dsg2^mut/mut: <1
  FGF acidic, Dsg2^mut/mut (Bay11-7082) vs WT: <1
  FGF-21, Dsg2^mut/mut (Bay11-7082) vs Dsg2^mut/mut: <1
  FGF-21, Dsg2^mut/mut (Bay11-7082) vs WT: <1
  FLt-3 Ligand, Dsg2^mut/mut (Bay11-7082) vs Dsg2^mut/mut: <1
  FLt-3 Ligand, Dsg2^mut/mut (Bay11-7082) vs WT: <1
  Fetuin A/AHSG, Dsg2^mut/mut (Bay11-7082) vs Dsg2^mut/mut: <1
  Fetuin A/AHSG, Dsg2^mut/mut (Bay11-7082) vs WT: <1
  G-CSF, Dsg2^mut/mut (Bay11-7082) vs Dsg2^mut/mut: <1
  G-CSF, Dsg2^mut/mut (Bay11-7082) vs WT: 1-2
  GDF-15, Dsg2^mut/mut (Bay11-7082) vs Dsg2^mut/mut: <1
  GDF-15, Dsg2^mut/mut (Bay11-7082) vs WT: <1
  GM-CSF, Dsg2^mut/mut (Bay11-7082) vs Dsg2^mut/mut: <1
  GM-CSF, Dsg2^mut/mut (Bay11-7082) vs WT: <1
  Gas 6, Dsg2^mut/mut (Bay11-7082) vs Dsg2^mut/mut: <1
  Gas 6, Dsg2^mut/mut (Bay11-7082) vs WT: <1
  HGF, Dsg2^mut/mut (Bay11-7082) vs Dsg2^mut/mut: <1
  HGF, Dsg2^mut/mut (Bay11-7082) vs WT: 4-6
  I-TAC (CXCL11), Dsg2^mut/mut (Bay11-7082) vs Dsg2^mut/mut: <1
  I-TAC (CXCL11), Dsg2^mut/mut (Bay11-7082) vs WT: <1
  IFN-y, Dsg2^mut/mut (Bay11-7082) vs Dsg2^mut/mut: <1
  IFN-y, Dsg2^mut/mut (Bay11-7082) vs WT: 1-2
  IGFBP-1, Dsg2^mut/mut (Bay11-7082) vs Dsg2^mut/mut: <1
  IGFBP-1, Dsg2^mut/mut (Bay11-7082) vs WT: 1-2
  IGFBP-2, Dsg2^mut/mut (Bay11-7082) vs Dsg2^mut/mut: <1
  IGFBP-2, Dsg2^mut/mut (Bay11-7082) vs WT: <1
  IGFBP-3, Dsg2^mut/mut (Bay11-7082) vs Dsg2^mut/mut: <1
  IGFBP-3, Dsg2^mut/mut (Bay11-7082) vs WT: <1
  IGFBP-5, Dsg2^mut/mut (Bay11-7082) vs Dsg2^mut/mut: <1
  IGFBP-5, Dsg2^mut/mut (Bay11-7082) vs WT: <1
  IGFBP-6, Dsg2^mut/mut (Bay11-7082) vs Dsg2^mut/mut: <1
  IGFBP-6, Dsg2^mut/mut (Bay11-7082) vs WT: <1
  IL-1a (IL-1F1), Dsg2^mut/mut (Bay11-7082) vs Dsg2^mut/mut: <1
  IL-1a (IL-1F1), Dsg2^mut/mut (Bay11-7082) vs WT: <1
  IL-1ra (IL-1F3), Dsg2^mut/mut (Bay11-7082) vs Dsg2^mut/mut: <1
  IL-1ra (IL-1F3), Dsg2^mut/mut (Bay11-7082) vs WT: 1-2
